Assay results taken from ChEMBL document CHEMBL1201862, “PubChem BioAssay data set” (2004).
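Values below derive from 48-hour exposures of cells grown in 96-well plates, with endpoints linearly interpolated between the two concentrations bracketing the appropriate inhibition level. At the GI50, growth is halved.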 Activity calls are given as the source filed them. Cut-off read from the data, not from the text of the source: active = GI50 up to about 1.1 µM and inactive = higher.

Legend:
Test in all cases: DTP human tumour cell line panel, 48 h
SK-MEL-2 = tested on: SK-MEL-2
SNB-19 = tested on: SNB-19
SNB-75 = tested on: SNB-75
A498 = tested on: A498
OVCAR-5 = tested on: OVCAR-5
HT-29 = tested on: HT-29
SF-295 = tested on: SF-295
OVCAR-8 = tested on: OVCAR-8
MOLT-4 = tested on: MOLT-4
OVCAR-4 = tested on: OVCAR-4
UACC-62 = tested on: UACC-62
MCF7 = tested on: MCF7
COLO 205 = tested on: COLO 205
EKVX = tested on: EKVX
NCI-H226 = tested on: NCI-H226
SF-539 = tested on: SF-539
Malme-3M = tested on: Malme-3M
SK-OV-3 = tested on: SK-OV-3
M14 = tested on: M14
DU-145 = tested on: DU-145
NCI/ADR-RES = tested on: NCI/ADR-RES
HCT-15 = tested on: HCT-15
MDA-MB-231 = tested on: MDA-MB-231
RXF 393 = tested on: RXF 393
SR = tested on: SR
PC-3 = tested on: PC-3
KM12 = tested on: KM12
Hs-578T = tested on: Hs-578T
OVCAR-3 = tested on: OVCAR-3
LOX IMVI = tested on: LOX IMVI
TK-10 = tested on: TK-10
HL-60 = tested on: HL-60
T47D = tested on: T47D
BT-549 = tested on: BT-549
NCI-H23 = tested on: NCI-H23
A549 = tested on: A549
UO-31 = tested on: UO-31
786-0 = tested on: 786-0
CAKI-1 = tested on: CAKI-1
NCI-H460 = tested on: NCI-H460
ACHN = tested on: ACHN
SW-620 = tested on: SW-620
U-251 = tested on: U-251
HOP-92 = tested on: HOP-92
MDA-MB-435 = tested on: MDA-MB-435
RPMI-8226 = tested on: RPMI-8226
SF-268 = tested on: SF-268
MDA-N = tested on: MDA-N
UACC-257 = tested on: UACC-257
HCT-116 = tested on: HCT-116
SN12C = tested on: SN12C
SK-MEL-28 = tested on: SK-MEL-28
HCC 2998 = tested on: HCC 2998
IGROV-1 = tested on: IGROV-1
NCI-H522 = tested on: NCI-H522
HOP-62 = tested on: HOP-62
SK-MEL-5 = tested on: SK-MEL-5
K562 = tested on: K562
CCRF-CEM = tested on: CCRF-CEM

## CC(C)(C)OC(=O)NC(CCCCNC(=O)OCc1ccccc1)C(=O)NCCNc1ccc(NCCNC(=O)C(CCCCNC(=O)OCc2ccccc2)NC(=O)OC(C)(C)C)c2c1C(=O)c1ccccc1C2=O (stereo not given)
SK-MEL-2
  GI50: 6.44 µM (inactive)
SNB-19
  GI50: 10.5 µM (inactive)
SNB-75
  GI50: 15.3 µM (inactive)
A498
  GI50: > 100 µM (inactive)
OVCAR-5
  GI50: > 100 µM (inactive)
HT-29
  GI50: > 100 µM (inactive)
SF-295
  GI50: > 93.8 µM (inactive)
OVCAR-8
  GI50: 8.36 µM (inactive)
MOLT-4
  GI50: > 100 µM (inactive)
OVCAR-4
  GI50: > 100 µM (inactive)
UACC-62
  GI50: 23 µM (inactive)
MCF7
  GI50: 6.97 µM (inactive)
COLO 205
  GI50: 27.2 µM (inactive)
EKVX
  GI50: > 100 µM (inactive)
NCI-H226
  GI50: > 86.5 µM (inactive)
SF-539
  GI50: 17.6 µM (inactive)
Malme-3M
  GI50: > 86.3 µM (inactive)
SK-OV-3
  GI50: 25.4 µM (inactive)
M14
  GI50: > 100 µM (inactive)
DU-145
  GI50: > 100 µM (inactive)
NCI/ADR-RES
  GI50: 19.8 µM (inactive)
HCT-15
  GI50: > 100 µM
MDA-MB-231
  GI50: 5.85 µM (inactive)
RXF 393
  GI50: 25.7 µM (inactive)
SR
  GI50: 24.3 µM (inactive)
PC-3
  GI50: > 100 µM (inactive)
KM12
  GI50: 25.6 µM (inactive)
Hs-578T
  GI50: 4.68 µM (inactive)
OVCAR-3
  GI50: > 79.4 µM (inactive)
LOX IMVI
  GI50: > 90.8 µM (inactive)
TK-10
  GI50: > 100 µM (inactive)
HL-60
  GI50: 1.02 µM (active)
T47D
  GI50: 5.11 µM (inactive)
BT-549
  GI50: > 71 µM (inactive)
NCI-H23
  GI50: 27.5 µM (inactive)
A549
  GI50: > 100 µM (inactive)
UO-31
  GI50: > 89.7 µM (inactive)
786-0
  GI50: > 56.9 µM (inactive)
CAKI-1
  GI50: > 100 µM (inactive)
NCI-H460
  GI50: > 100 µM (inactive)
ACHN
  GI50: > 100 µM (inactive)
SW-620
  GI50: 70.6 µM (inactive)
U-251
  GI50: 3.18 µM (inactive)
HOP-92
  GI50: > 42.3 µM (inactive)
MDA-MB-435
  GI50: 31.5 µM (inactive)
RPMI-8226
  GI50: 1.02 µM (active)
SF-268
  GI50: > 31.8 µM (inactive)
MDA-N
  GI50: 26.4 µM (inactive)
UACC-257
  GI50: > 100 µM (inactive)
HCT-116
  GI50: 24.5 µM (inactive)
SN12C
  GI50: > 100 µM (inactive)
SK-MEL-28
  GI50: 14.7 µM (inactive)
HCC 2998
  GI50: 8.67 µM (inactive)
IGROV-1
  GI50: 29.3 µM (inactive)
NCI-H522
  GI50: 10.3 µM (inactive)
HOP-62
  GI50: 23.9 µM (inactive)
SK-MEL-5
  GI50: > 100 µM (inactive)

## CCCn1cnc2c(SCc3ccc(Cl)cc3)nc(N)nc21
SK-MEL-2
  GI50: 18.4 µM (inactive)
SNB-19
  GI50: 51.6 µM (inactive)
SNB-75
  GI50: 21.9 µM (inactive)
A498
  GI50: 16.7 µM (inactive)
OVCAR-5
  GI50: 28.4 µM (inactive)
HT-29
  GI50: 19.9 µM (inactive)
SF-295
  GI50: 21.6 µM (inactive)
OVCAR-8
  GI50: 40.1 µM (inactive)
OVCAR-4
  GI50: 32.7 µM (inactive)
UACC-62
  GI50: 21.6 µM (inactive)
MCF7
  GI50: 31 µM (inactive)
EKVX
  GI50: 15.5 µM (inactive)
Malme-3M
  GI50: 26.9 µM (inactive)
SK-OV-3
  GI50: 27.9 µM (inactive)
M14
  GI50: 32.4 µM (inactive)
K562
  GI50: 16.2 µM (inactive)
DU-145
  GI50: 36.6 µM (inactive)
NCI/ADR-RES
  GI50: 22.6 µM (inactive)
HCT-15
  GI50: 27.3 µM
MDA-MB-231
  GI50: 16.9 µM (inactive)
RXF 393
  GI50: 22.3 µM (inactive)
SR
  GI50: 13.5 µM (inactive)
PC-3
  GI50: 21.2 µM (inactive)
KM12
  GI50: 21.5 µM (inactive)
Hs-578T
  GI50: 47.2 µM (inactive)
OVCAR-3
  GI50: 17.2 µM (inactive)
LOX IMVI
  GI50: 22 µM (inactive)
TK-10
  GI50: 13.5 µM (inactive)
HL-60
  GI50: 18.2 µM (inactive)
T47D
  GI50: 18.9 µM (inactive)
BT-549
  GI50: 29.1 µM (inactive)
NCI-H23
  GI50: 31 µM (inactive)
A549
  GI50: 39.4 µM (inactive)
UO-31
  GI50: 5.85 µM (inactive)
786-0
  GI50: 29.6 µM (inactive)
CAKI-1
  GI50: 24.8 µM (inactive)
NCI-H460
  GI50: 18.7 µM (inactive)
ACHN
  GI50: 16.3 µM (inactive)
SW-620
  GI50: 36.3 µM (inactive)
U-251
  GI50: 23.1 µM (inactive)
HOP-92
  GI50: 44.5 µM (inactive)
CCRF-CEM
  GI50: 34.2 µM (inactive)
MDA-MB-435
  GI50: 23.1 µM (inactive)
RPMI-8226
  GI50: 16.1 µM (inactive)
SF-268
  GI50: 36.3 µM (inactive)
MDA-N
  GI50: 21.9 µM (inactive)
UACC-257
  GI50: 18.5 µM (inactive)
HCT-116
  GI50: 19.4 µM (inactive)
SN12C
  GI50: 19.7 µM (inactive)
SK-MEL-28
  GI50: 29 µM (inactive)
HCC 2998
  GI50: 20 µM (inactive)
IGROV-1
  GI50: 40.4 µM (inactive)
NCI-H522
  GI50: 16.5 µM (inactive)
HOP-62
  GI50: 17.3 µM (inactive)
SK-MEL-5
  GI50: 15.3 µM (inactive)

## COc1ccccc1N1CCN(CCCCNC(=O)c2ccc([N+](=O)[O-])o2)CC1
SK-MEL-2
  GI50: 4.97 µM (inactive)
SNB-19
  GI50: 11.8 µM (inactive)
A498
  GI50: 9.79 µM (inactive)
OVCAR-5
  GI50: 15.1 µM (inactive)
HT-29
  GI50: 2.74 µM (inactive)
SF-295
  GI50: 11.6 µM (inactive)
OVCAR-8
  GI50: 10.6 µM (inactive)
MOLT-4
  GI50: 23.1 µM (inactive)
OVCAR-4
  GI50: 12.5 µM (inactive)
UACC-62
  GI50: 5.93 µM (inactive)
MCF7
  GI50: 4.75 µM (inactive)
COLO 205
  GI50: 2.38 µM (inactive)
EKVX
  GI50: 16 µM (inactive)
NCI-H226
  GI50: 11.7 µM (inactive)
SF-539
  GI50: 6.1 µM (inactive)
Malme-3M
  GI50: 2.81 µM (inactive)
SK-OV-3
  GI50: 15.9 µM (inactive)
M14
  GI50: 4.05 µM (inactive)
K562
  GI50: 12.4 µM (inactive)
DU-145
  GI50: 4.76 µM (inactive)
NCI/ADR-RES
  GI50: 20 µM (inactive)
HCT-15
  GI50: 3.48 µM
MDA-MB-231
  GI50: 23.6 µM (inactive)
RXF 393
  GI50: 8.57 µM (inactive)
SR
  GI50: 5.61 µM (inactive)
PC-3
  GI50: 13.6 µM (inactive)
KM12
  GI50: 5.53 µM (inactive)
Hs-578T
  GI50: 15.5 µM (inactive)
OVCAR-3
  GI50: 4.52 µM (inactive)
LOX IMVI
  GI50: 1.12 µM (active)
TK-10
  GI50: 5.9 µM (inactive)
HL-60
  GI50: 5.86 µM (inactive)
T47D
  GI50: 14.3 µM (inactive)
BT-549
  GI50: 4.19 µM (inactive)
NCI-H23
  GI50: 5.79 µM (inactive)
A549
  GI50: 6.98 µM (inactive)
UO-31
  GI50: 10.4 µM (inactive)
786-0
  GI50: 6.82 µM (inactive)
CAKI-1
  GI50: 13.4 µM (inactive)
NCI-H460
  GI50: 3.43 µM (inactive)
ACHN
  GI50: 11.7 µM (inactive)
SW-620
  GI50: 8.22 µM (inactive)
U-251
  GI50: 7.55 µM (inactive)
HOP-92
  GI50: 16.6 µM (inactive)
CCRF-CEM
  GI50: 21.1 µM (inactive)
MDA-MB-435
  GI50: 3.36 µM (inactive)
RPMI-8226
  GI50: 19.1 µM (inactive)
SF-268
  GI50: 16.7 µM (inactive)
MDA-N
  GI50: 3.18 µM (inactive)
UACC-257
  GI50: 4.1 µM (inactive)
HCT-116
  GI50: 10.3 µM (inactive)
SN12C
  GI50: 3.27 µM (inactive)
SK-MEL-28
  GI50: 25.1 µM (inactive)
HCC 2998
  GI50: 2.42 µM (inactive)
IGROV-1
  GI50: 13.7 µM (inactive)
NCI-H522
  GI50: 2.69 µM (inactive)
HOP-62
  GI50: 5.18 µM (inactive)
SK-MEL-5
  GI50: 6.75 µM (inactive)
